Assay results reported in US20130209581A1, “IODINATED ACTIVATED CHARCOAL FOR TREATING SYMPTOMS OF DEPRESSION” (priority 2010, published 2013).

Columns and labels:
healthy volunteers = conditions: humans, cited from earlier work
[1] = test system: animals suffering from the effects of iodine toxicity; conditions: animals (chicks) with iodine toxicity; cited from earlier work
[2] = test system: symptoms caused by depression; test: Self-administration of iodinated activated charcoal and its separate components by one patient with long-standing depression symptoms, with daily symptom recording and a Quality of life questionnaire; format: in vivo, human; conditions: 90 mg daily in a capsule, after 2 weeks
Description: A person, has for some 20 years suffered from many symptoms, including chronic and severe mental fatigue in spite of 12 h sleep per night, psychological burnout, anxiety, lack of concentration, depressive mood, withdrawal from social situations, irritable bowel symptoms with constipation and/or diarrhea, anxiety, heart palpitations, pressure in the chest, reduced stamina and condition and a reduced sex drive. When asked to evaluate their subjective health status using a Quality of life questionnaire with a 1-10 scale where 1 is the worst possible and 10 is absolutely the best, they regularly marked 1 or 2. Their symptoms were interpreted as caused by depression, and they were treated with 5 different types of anti-depressants for a total of 17 years.
Some time ago, they tested the mercury binding substance iodinated activated charcoal (IAC, custom made at PharmaLundensis according to Example 1). They took 1 g per day of IAC for two weeks, and recorded the symptoms they experienced daily, as well as filling in a Quality of life questionnaire. […] They felt better than they had felt for many years.
After these two weeks, they wanted to clarify if the massive improvement in their health was caused by the IAC. […]

## [Br-].[Na+] [Sodium bromide, sodium bromide]
Healthy volunteers; healthy volunteers
  no-effect level: 4 mg/kg body weight
Healthy volunteers
  tolerability: well tolerated
[1]
  effect on symptoms of iodine toxicity: helps to reverse the symptoms

## II [elemental iodine]
[2]
  Quality of life score: as bad as when they started taking the iodine capsules
  improvement of symptoms: no improvements
